Results: paper PMC10786919, “Design-rules for stapled peptides with in vivo activity and their application to Mdm2/X antagonists” (Nature Communications, 2024)
pEC50, pKd: −log10 of the molar value. In brackets after ≈: the same amount, converted by molar mass. Like-named read-outs stand apart in the source and are kept apart here. Positions of bridges follow the written chain, without caps; N, C: chain ends. Non-standard residues stand in square brackets, D forms with d. Residues, ends and D or L forms follow the SMILES beside them. Lys(N3) = [N-]=[N+]=NCCCC[C@H](N)C(=O)O; hArg = N=C(N)NCCCC[C@H](N)C(=O)O; R8 = C=CCCCCCC[C@@](C)(N)C(=O)O; Cba = N[C@@H](CC1CCC1)C(=O)O; S5 = C=CCCC[C@](C)(N)C(=O)O; Aib = CC(C)(N)C(=O)O; βAla = NCCC(=O)O

Legend:
[1] = tested on: p53 responsive β-lactamase reporter in HCT116 cells; test: cells; type: cell-based
How it was run: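 Read-out used the ToxBLAzer Dual Screen for β-lactamase driven by a stably integrated p53-responsive reporter. Assay: 8000 HCT116 cells per well at 0.5% final DMSO. Reported numbers are geometric means over a minimum of three biological replicates.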

[2] = tested on: Jump-In T-REx CHO-K1 BLA cells; test: cells; type: cell-based
[3] = Circular dichroism (CD) helicity; type: physicochemical
Protocol: A total of 5 µL of the 10 mM stock peptide was mixed with 45 µL of 100% methanol, and dried for 2 h in the SpeedVac concentrator (Thermo Scientific). The dried peptide was reconstituted in a buffer (1 mM Hepes pH 7.4 and 5% methanol) to a concentration of 1 mM. The peptide sample was placed in a quartz cuvette with a path length of 0.2 cm. The peptide concentration was determined by the absorbance of the peptide at […]. The CD spectrum was recorded from 300 to 190 nm using the Chirascan-plus qCD machine (Applied Photophysics, Surrey, UK), at 25 °C. All experiments were done in duplicates. The CD spectrum was converted to mean residue ellipticity before deconvolution and estimation of the secondary structure components of the peptide using the CDNN software (distributed by Applied Photophysics). Measurements were taken at least twice and were reported as arithmetic means.

human Mdm2 1–125 = molecular target: T1, human Mdm2 1–125 (Homo sapiens, UniProt Q00987); test: Mdm2 binding by competitive fluorescence anisotropy assay (FP binding); conditions: read-out: FP binding assay KD
T1 construct: GST (N); His6 (internal); TEV cleavage site (ENLYFQG) (internal); made in house; host or cells: BL21 (DE3) Rosetta T1R Escherichia coli
T1 sequence (Q00987 with tags, fused parts or gaps): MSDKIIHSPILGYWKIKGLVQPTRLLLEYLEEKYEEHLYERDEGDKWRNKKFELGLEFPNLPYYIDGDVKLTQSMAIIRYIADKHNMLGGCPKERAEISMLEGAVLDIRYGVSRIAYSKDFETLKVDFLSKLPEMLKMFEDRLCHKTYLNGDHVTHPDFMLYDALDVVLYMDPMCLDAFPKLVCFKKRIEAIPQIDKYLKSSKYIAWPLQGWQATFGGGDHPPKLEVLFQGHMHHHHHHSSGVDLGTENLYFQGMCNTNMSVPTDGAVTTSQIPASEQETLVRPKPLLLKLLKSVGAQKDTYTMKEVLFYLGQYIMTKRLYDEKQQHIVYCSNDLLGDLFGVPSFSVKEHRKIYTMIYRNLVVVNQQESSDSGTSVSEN

[4] = Lactate dehydrogenase (LDH) release assay; type: cell-based
How it was run: (§1)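 Geometric means of at least three independent biological runs are given for LDH release measured in HCT116 cells stably expressing a p53-driven β-lactamase reporter. Plating density was 8000 cells/well; DMSO in wells was 0.5%.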

HCT116 cells = test: Lactate dehydrogenase (LDH) release assay; type: cell-based
How it was run: as §1

[5] = Nanoclick permeability assay
How it was run: (§2)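 Azido-peptide permeability was read as loss of NanoBRET signal (donor 450 nm, acceptor 610 nm) after adding NanoBret618-azide at 10 μM final.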

[6] = tested on: cells transiently transfected with the NanoLuc-HaloTag vector; test: Nanoclick permeability assay; conditions: 4Hr
How it was run: as §2

physchem [7] = test: physchem
[8] = Experimental LogD (partition coefficient); conditions: for logD: not stated, Partition Coeff LogD
[9] = Solubility assay (kinetic solubility, PBS pH 7); type: physicochemical; conditions: for solubility kinetic: pH 7, aqueous buffer, kinetic from dmso stock, read-out: Solubility
How it was run: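 Quantitation uses an external standard at 100 µM, prepared from 10 mM stock in acetonitrile:methanol:DMSO (10:80:10). Solubility (µM) = (peak area of sample ÷ peak area of standard) × standard concentration.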

physchem [10] = test: physchem; remark: listed apart in the source
[11] = tested on: CellSensor p53RE-bla HCT-116 Cell Line; conditions: read-out: Cell Proliferation assay EC50; p53 WT, HCT116
How it was run: (§3)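 Compound dilution series (10 points, 3-fold, 10 mM top stock in DMSO) tested on overnight-plated Ca Ski cells in RPMI1640/10% FBS and on blasticidin-selected p53RE-bla HCT-116 cells in McCoy's 5A; read-out was CellTiter-Glo 2.0 luminescence after room-temperature equilibration.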

Ca Ski cell line = conditions: read-out: Cell Proliferation assay EC50; p53 Mut, Ca-Ski
How it was run: as §3

[12] = 0% FBS 4Hr, read-out: p53 reporter assay: EC50
[13] = 0% FBS 4Hr, read-out: TETCHO: Counterscreen EC50
[14] = 0% FBS 4Hr, read-out: LDH: Cytotoxicity assay: EC50

| Structure (SMILES) | pEC50 [1, 12] | TETCHO: Counterscreen % Effect ([2]; 0% FBS 4Hr) [%] | pEC50 [2, 13] | TETCHO: Counterscreen % Effect ([2]; 0% FBS 16Hr) [%] | CD % Helicity [3] [%] | pEC50 ([4]; LDH: Cytotoxicity assay: EC50) | LDH: Cytotoxicity assay: % Effect (HCT116 cells) [%] | Nanoclick permeability assay % Effect [6] [%] | EPSA (physchem [7]) [A^2] | logD [8] | solubility kinetic ([9]; pH 7, PBS) [µM] | also measured |
| --- | --- | --- | --- | --- | --- | --- | --- | --- | --- | --- | --- | --- |
| CC(=O)N[C@H](C(=O)N[C@@H](CO)C(=O)NC(C)(Cc1ccccc1)C(=O)N[C@@H]1CCCCCCC=CCCC[C@@H](C(N)=O)NC(=O)C(C)(CC(C)C)NC(=O)[C@H](CC(C)C)NC(=O)[C@H](C)NC(=O)[C@H](Cc2c[nH]c3ccccc23)NC(=O)[C@H](Cc2ccc(O)cc2)NC(=O)[C@H](CCC(=O)O)NC1=O)[C@@H](C)O (stereo partly shown) [MP-792] | 4.91 | 20.04 | 4.31 | -1.02 | 25.3 | < 4.30 | 10.77 | – | – | – | – | pKd (human Mdm2 1–125): 6.70 |
| CC(=O)N[C@@H](CCCCN=[N+]=[N-])C(=O)NCCC(=O)N[C@@H](CC(C)C)C(=O)N[C@H](C(=O)N[C@@H](Cc1ccccc1)C(=O)N[C@]1(C)CCCCCCC=CCCC[C@@](C)(C(=O)N[C@@H](CO)C(=O)N[C@@H](C)C(=O)N[C@@H](C)C(N)=O)NC(=O)[C@H](CC2CCC2)NC(=O)[C@H](CCC(N)=O)NC(=O)[C@H](C)NC(=O)[C@H](Cc2c[nH]c3ccccc23)NC(=O)[C@H](Cc2ccc(O)cc2)NC(=O)[C@@H]2CCCN2C1=O)[C@@H](C)O [MP-8834] | – | 11.7 | – | – | 21.9 | – | – | 129.4 | 187 | 3.03 | – | cell entry EC50 [5]: 312 nM; pEC50 [4, 14]: < 4.30; LDH: Cytotoxicity assay: % Effect (HCT116 cells; 0% FBS 4Hr): 1.728% |
| CC(=O)N[C@@H](CC(C)C)C(=O)N[C@H](C(=O)N[C@@H](Cc1ccccc1)C(=O)NC(C)(C)C(=O)N[C@@H](CCC(=O)O)C(=O)N[C@@H](Cc1ccc(O)cc1)C(=O)N[C@@H](Cc1c[nH]c2ccccc12)C(=O)N[C@@H](C)C(=O)N[C@@H](CCC(N)=O)C(=O)N[C@@H](CC(C)C)C(=O)NC(C)(C)C(=O)N[C@@H](CO)C(N)=O)[C@@H](C)O [MP-790] (Ac-LTF[Aib]EYWAQL[Aib]S-NH2) | < 4.30 | 9.13 | < 4.30 | 119.2 | 19 | < 4.30 | -1.73 | -7.015 | 176 | 2.11 | 88 (≈ 129 µg/mL) | – |
| CC(=O)N[C@H](C(=O)N[C@@H](CO)C(=O)NC(C)(Cc1ccccc1)C(=O)N[C@]1(C)CCCCCCC=CCCC[C@@](C)(C(N)=O)NC(=O)[C@H](CC(C)C)NC(=O)[C@H](CC(C)C)NC(=O)[C@H](C)NC(=O)[C@H](Cc2c[nH]c3ccccc23)NC(=O)[C@H](Cc2ccc(O)cc2)NC(=O)[C@H](CCC(=O)O)NC1=O)[C@@H](C)O (stereo partly shown) [MP-159] | 4.43 | 165.5 | 4.52 | 55.93 | 40.4 | 4.67 | 47.15 | – | 210 | 2.75 | 85.5 (≈ 126 µg/mL) | pKd (human Mdm2 1–125): 6.28 |
| CC(=O)N[C@@H](CC(C)C)C(=O)N[C@H](C(=O)N[C@@H](Cc1ccccc1)C(=O)N[C@]1(C)CCCCCCC=CCCC[C@@](C)(C(=O)N[C@@H](CO)C(=O)N[C@@H](C)C(=O)N[C@@H](C)C(=O)NCCCCCC(N)=O)NC(=O)[C@H](CC2CCC2)NC(=O)[C@H](CCC(N)=O)NC(=O)[C@H](C)NC(=O)[C@H](Cc2c[nH]c3ccccc23)NC(=O)[C@H](Cc2ccc(O)cc2)NC(=O)[C@H](CCC(=O)O)NC1=O)[C@@H](C)O [MP-670] | – | – | – | – | – | – | – | – | – | – | – | EPSA (physchem [10]): 193 A^2; Partition Coeff LogD [8]: Poorly Behaved; Solubility ([9]; pH 7, PBS): Poorly Behaved; pEC50 ([4]; LDH: Cytotoxicity assay EC50): < 4.30 |
| CC(=O)N[C@@H](CC(C)C)C(=O)N[C@H](C(=O)N[C@@H](Cc1ccccc1)C(=O)N[C@]1(C)CCCCCCC=CCCC[C@@](C)(C(=O)N[C@@H](C)C(=O)N[C@@H](C)C(=O)N[C@@H](C)C(=O)N[C@@H](C)C(=O)N[C@@H](C)C(=O)N[C@H](C)C(N)=O)NC(=O)[C@H](CC(C)C)NC(=O)[C@H](CCC(N)=O)NC(=O)[C@H](C)NC(=O)[C@H](Cc2c[nH]c3ccccc23)NC(=O)[C@H](Cc2ccc(O)cc2)NC(=O)[C@H](CCC(=O)O)NC1=O)[C@@H](C)O [ALRN-6924, Ac-LTF(R8)EYWAQL(S5)AAAAA(dA)-NH2, reference compound] (Ac-LTF[R8]EYWAQL[S5]AAAAA[dA]-NH2; staple 4-11) | – | 4.454 | < 4.30 | – | 51.25 | – | – | 33.65 | – | – | – | p53 reporter assay % Effect ([1]; 0% FBS 4Hr): 95.6%; pEC50 ([1]; 0% FBS 4Hr, read-out: p53 reporter assay EC50): 6.85; p53 reporter assay % Effect ([1]; 10% FBS 16Hr): 77.82%; pEC50 ([1]; 10% FBS 16Hr, read-out: p53 reporter assay EC50): 6.49; pEC50 ([1]; read-out: Cell EC50 (4 hr, 0% FBS), p53 reporter assay, 4 hr, 0% FBS): 6.85; pEC50 ([1]; read-out: Cell EC50 (16 hr, 10% FBS), p53 reporter assay, 16 hr, 10% FBS): 6.49; TETCHO: Counterscreen % Effect ([2]; 10% FBS 16Hr): -11.62%; pEC50 ([2]; 10% FBS 16Hr, read-out: TETCHO: Counterscreen EC50): < 4.30; cell entry EC50 [5]: > 10000 nM; Aqueous solution helicity ([3]; circular dichroism): 51.25%; Partition Coeff LogD [8]: Poorly Behaved; Solubility [9]: P.B.; Solubility ([9]; pH 7, PBS): Poorly Behaved; pEC50 ([4]; 0% FBS 4Hr, read-out: LDH: Cytotoxicity assay EC50): < 4.29; pEC50 ([4]; 10% FBS 16Hr, read-out: LDH: Cytotoxicity assay EC50): < 4.29; LDH: Cytotoxicity assay % Effect (HCT116 cells; 0% FBS 4Hr): 0.8526%; LDH: Cytotoxicity assay % Effect (HCT116 cells; 10% FBS 16Hr): 8.856% |
| CC(=O)N[C@@H](CCCCN=[N+]=[N-])C(=O)NCCC(=O)N[C@@H](CC(C)C)C(=O)N[C@H](C(=O)N[C@@H](Cc1ccccc1)C(=O)N[C@]1(C)CCCCCCC=CCCC[C@@](C)(C(=O)N[C@@H](CO)C(=O)N[C@@H](C)C(=O)N[C@@H](C)C(N)=O)NC(=O)[C@H](CC2CCC2)NC(=O)[C@H](CCC(N)=O)NC(=O)[C@H](Cc2c[nH]cn2)NC(=O)[C@H](Cc2c[nH]c3ccccc23)NC(=O)[C@H](Cc2ccc(O)cc2)NC(=O)[C@H](CCC(=O)O)NC1=O)[C@@H](C)O [MP-496, AZIDE-ATSP-7041 (A8H)] | 5.79 | 34.53 | 5.55 | – | 32.75 | – | – | – | 214 | 2.63 | 20 (≈ 40.7 µg/mL) | pEC50 ([1]; 0% FBS 16Hr, read-out: p53 reporter assay: EC50): 5.78; TETCHO Counterscreen % Effect ([2]; 4 hours, 0% serum, efficacy at 50 μM relative to tetracycline control): 34.53%; pEC50 ([2]; 4 hours, 0% serum, read-out: TETCHO Counterscreen EC50): 5.55; off-target effects (LDH release and/or counterscreen activity) ([2]; Supplementary Table 1, 0% serum, 4 hours): none; pEC50 [11]: 5.81; pEC50 (Ca Ski cell line): < 4.30; pEC50 [4, 14]: < 4.30; LDH: Cytotoxicity assay: % Effect (HCT116 cells; 0% FBS 4Hr): 33.4% |
| CC(=O)N[C@@H](CCCCN=[N+]=[N-])C(=O)NCCC(=O)N[C@@H](CC(C)C)C(=O)N[C@H](C(=O)N[C@@H](Cc1ccccc1)C(=O)N[C@]1(C)CCCCCCC=CCCC[C@@](C)(C(=O)N[C@@H](CO)C(=O)N[C@@H](C)C(=O)N[C@@H](C)C(N)=O)NC(=O)[C@H](CC2CCC2)NC(=O)[C@H](CCCCNC(=N)N)NC(=O)[C@H](C)NC(=O)[C@H](Cc2c[nH]c3ccccc23)NC(=O)[C@H](Cc2ccc(O)cc2)NC(=O)[C@H](CCC(=O)O)NC1=O)[C@@H](C)O [MP-900] (Ac-[Lys(N3)][βAla]LTF[R8]EYWA[hArg][Cba][S5]SAA-NH2; staple 6-13) | – | – | – | – | – | – | – | – | – | 3.03 | 10 (≈ 20.1 µg/mL) | cell entry EC50 ([5]; Nanoclick permeability assay EC50): 1040 nM; EPSA (physchem [10]): 187 A^2 |
